In patent publication US5627169A, “Selective antagonists for GABArho receptor” (The Regents of The University of California, priority 1994, dated 1997):

Assays:
GABArho receptors = conditions: cited from earlier work
[1] = system: GABAA receptors expressed by bovine retina mRNA; assay: Xenopus oocytes expressing GABAA receptors from bovine retina mRNA; assay type: cell-based
Text: (§1) Electrical recording techniques and the Xenopus oocyte expression system were used to determine the sensitivity of a variety of commonly used GABAA and GABAB receptor ligands to GABArho receptors expressed by bovine retina RNA.
When a methylphosphinic acid substituent was used to replace the carboxyl group of GABA in this compound, affects at GABAA receptors were prohibited, but relatively strong interactions at closed channel binding sites on GABArho receptors were detected.

[2] = system: GABAA receptors expressed by rat brain mRNA; assay: Xenopus oocytes expressing GABAA receptors from rat brain mRNA; assay type: cell-based
[3] = target: GABArho receptors expressed by bovine retina RNA; assay: Electrical recording in Xenopus oocytes expressing GABArho receptors from bovine retina RNA; assay type: cell-based
Text: as §1

[4] = system: GABAA receptors expressed by native mRNAs from the brain; assay: Xenopus oocytes expressing GABAA receptors from native brain mRNAs of different animal species; assay type: cell-based
Procedure: (§2) To test the new compounds synthesized, Xenopus oocytes were injected with the cloned GABA RNA and other oocytes were injected with native poly (A)^+ RNAs extracted from the rat cerebral cortex or spinal cord, bovine brain, rabbit brain, chick brain or optic lobe. […] The various concentrations of compound 7 were applied together with 10^-5M GABA.

[5] = system: chick brain GABAA receptors; assay: Membrane currents in Xenopus oocyte expressing chick brain GABAA receptors; assay type: cell-based; conditions: various concentrations applied together with 10^-5 M GABA
Procedure: as §2

cloned GABArho receptors = target: T1, cloned GABArho receptors (Homo sapiens, UniProt P24046); assay: Membrane currents in Xenopus oocytes expressing cloned GABArho receptors; assay type: cell-based
T1 construct: expressed in transfected cells; host or cells: Xenopus oocytes injected with cloned receptor RNA
Procedure: as §2
To study the time to onset of antagonistic action by TPMPA, a timed trial utilizing pulsed application of GABA (10^-5 M) and TPMPA (8×10^-5 M) was begun. At the first marker pulse of 50 nA, GABA administration of GABA was begun. TPMPA was applied between the 2nd and 3rd markers, and normal Ringers solution (without GABA) was applied at the 4th marker pulse.

[6] = pulsed application of GABA 10^-5 M and TPMPA 8×10^-5 M

T1 sequence (P24046 22-479): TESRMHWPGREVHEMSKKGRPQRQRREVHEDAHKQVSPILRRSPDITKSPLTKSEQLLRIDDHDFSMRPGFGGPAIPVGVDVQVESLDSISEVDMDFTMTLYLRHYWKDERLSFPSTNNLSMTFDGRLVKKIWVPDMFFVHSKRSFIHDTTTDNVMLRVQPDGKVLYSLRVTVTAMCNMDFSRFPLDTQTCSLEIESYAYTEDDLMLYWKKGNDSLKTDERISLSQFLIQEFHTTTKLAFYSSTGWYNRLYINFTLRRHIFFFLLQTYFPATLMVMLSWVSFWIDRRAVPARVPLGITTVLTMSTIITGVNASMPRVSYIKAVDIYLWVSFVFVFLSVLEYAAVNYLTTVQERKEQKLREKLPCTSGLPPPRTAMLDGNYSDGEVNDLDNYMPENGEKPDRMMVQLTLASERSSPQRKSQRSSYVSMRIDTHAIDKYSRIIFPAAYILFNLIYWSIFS

Question: Which “sensitivity of GABArho receptors” value (GABArho receptors) does the source give for `NCC(CC(=O)O)c1ccc(Cl)cc1` (stereo not drawn) [baclofen] here?
Answer: insensitive

Question: Which “effects on GABAA receptors” value [1] does the source give for `CP(=O)(O)CCCN` [3-aminopropyl(methyl-)phosphinic acid] here?
Answer: no detectable effects

Question: What about the “effects on GABAA receptors” value [2] of the same compound?
Answer: no detectable effects

Question: What about the Ki ([3]; read-out: Ki as competitive antagonist at GABArho receptors) of the same compound?
Answer: 800 nM

Question: With `O=C(O)C1=CCNCC1` [isoguvacine] as the compound, how does the “action on GABArho receptors” value [3] read?
Answer: either as weak partial agonists or as competitive antagonists

Question: Which “sensitivity of GABArho receptors” value (GABArho receptors) does the source give for `CN1CCc2cc3c(cc2[C@H]1[C@@H]1OC(=O)c2c1ccc1c2OCO1)OCO3` [bicuculline] here?
Answer: insensitive

Question: Which “action on GABArho receptors” value [3] does the source give for `O=C(O)C1CCNCC1` [isonipecotic acid] here?
Answer: either as weak partial agonists or as competitive antagonists

Question: With `Oc1noc2c1CCNC2` [THIP, 4,5,6,7-tetrahydroisoxazolo-[5,4-c]-pyridin-3-ol] as the compound, how does the “action on GABArho receptors” value [3] read?
Answer: either as weak partial agonists or as competitive antagonists

Question: What does the source list for `CP(=O)(O)C1=CCNCC1` [Compound 7a, 1,2,5,6-tetrahydropyridine-4-methylphosphinic acid]?
Answer: blockage of GABAA receptors compared with GABArho receptors [4]: blockage was less than that of GABArho receptors; attenuation of currents elicited by activation of GABAA receptors [5]: not greatly attenuated until quite high concentration were used; effect on membrane current response to GABA (cloned GABArho receptors; 8×10^-5 M compound applied together with 10^-5 M GABA): abolishes almost completely the response to GABA; antagonism of GABArho receptors (cloned GABArho receptors; expressed by cloned GABArho receptor RNA): potent and selective antagonist; onset of antagonistic action (cloned GABArho receptors; [6]): rapid in onset; recovery from antagonistic action (cloned GABArho receptors; [6]): recovery was also rapid; antagonism of GABArho receptors ([3]; expressed by native bovine retina mRNA): potent and selective antagonist
